Measurements: paper PMC5518657, “Deacetylation of mycothiol-derived ‘waste product’ triggers the last biosynthetic steps of lincosamide antibiotics” (Chemical Science, 2015)

Target: T1, LmbF (Streptomyces lincolnensis, UniProt A9Y8R7)
T1 construct: recombinant protein; details only in ESI
Assay: in vitro turnover of […] with and without PLP, LC-MS
Type: biochemical
Settings: no turnover without PLP; covalent binding to the substrate amino group is proposed

T1 sequence (A9Y8R7 entry or part of it): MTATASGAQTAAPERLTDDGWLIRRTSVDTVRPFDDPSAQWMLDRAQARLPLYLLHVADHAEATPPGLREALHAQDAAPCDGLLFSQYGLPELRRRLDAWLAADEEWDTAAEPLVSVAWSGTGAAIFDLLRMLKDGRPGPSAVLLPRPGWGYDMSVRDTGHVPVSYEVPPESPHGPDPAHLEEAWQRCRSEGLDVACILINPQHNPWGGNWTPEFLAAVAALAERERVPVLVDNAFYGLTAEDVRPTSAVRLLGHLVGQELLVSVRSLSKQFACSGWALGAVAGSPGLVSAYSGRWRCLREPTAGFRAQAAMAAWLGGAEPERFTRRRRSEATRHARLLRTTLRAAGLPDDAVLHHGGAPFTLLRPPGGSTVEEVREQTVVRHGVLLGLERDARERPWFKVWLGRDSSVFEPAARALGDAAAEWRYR

With `Cc1ncc(COP(=O)(O)O)c(C=O)c1O` [pyridoxal-5′-phosphate] as the compound, how does the “in vitro turnover of 479 with and without PLP, LC-MS” value read?
The value was “LmbF failed to carry out this reaction in the absence of PLP”.
